# Legend:
# [1] = tested on: monomeric His-RAD51 [F86E, A89E]; assay: Static light scattering (SLS) binding test, SEC columns in tandem
# Description: Static light scattering (SLS) analyses were performed on a Viscotek GPCmax/TDA (Malvern, UK) instrument, connected in tandem with a series of two TSKgel G3000PWxl size-exclusion chromatography columns (Tosoh Bioscience) as already described in ref . For all the experiments, the system was equilibrated with buffer containing 20 mM Hepes pH 8.00, 100 mM Na2SO4, and 5% glycerol. […] Data analysis was performed using Viscotek software, calibrating the instrument with Bovine Serum Albumin at 5 mg/mL. Data were exported as .csv files and regraphed using GraphPad Prism 10.
# [2] = tested on: His-RAD51 [F86E, A89E]; assay: Biolayer interferometry (BLI), bioBRC4 immobilized on Streptavidin biosensors; assay type: binding; conditions: 460, 230 and 115 nM His-RAD51 [F86E, two replicates, pH 8.00, 25 °C, 180 s association, 180 s dissociation
# Description: Biolayer interferometry (BLI) experiments were performed by utilizing an Octet K2 system (Sartorius). All BLI experiments were carried out in an assay buffer containing 20 mM Hepes, pH 8.00, 100 mM Na2SO4, 5% glycerol, 0.05% Tween 20, 0.1% PEG8000, and 0.5 mM Sodium Deoxycholate. The following protocol was applied: 60 s baseline, 240 s loading, 240 s baseline, 180 s association, 180 s dissociation. For every step, shaking at 1000 rpm was enabled, and the temperature was set at 25 °C. Streptavidin Octet biosensors (18-5019, Sartorius) were initially dipped into assay buffer to record an initial baseline for 60 s. BioBRC4 was solubilized in 100% DMSO at a 2 mM concentration, diluted at a final 1 μM concentration in assay buffer, and then immobilized to the Streptavidin sensor through a 240 s loading step. After the loading stage, a second baseline of 240 s was recorded in wells containing only assay buffer to verify the stability of the signal and remove unbound peptide. […] Data were analyzed using Octet Analysis Studio 12.2 by subtracting, from recorded sensorgrams, the signals of both the reference well and reference sensors to remove the signals due to nonspecific binding. The recorded sensorgrams were corrected by aligning to the average of the second baseline steps and applying Savitzky–Golay filtering and interstep correction based on the second baseline step. […]
# [3] = tested on: monomeric RAD51 (His-RAD51[F86E, A89E]); assay: Cross-linking with BS3 or EDAC, Coomassie blue SDS-PAGE and Western blot; assay type: binding; conditions: Coomassie blue-stained SDS-PAGE; BS3 1 mM, 1:1; EDAC 0.2% (w/v), 1:2
# Description: For cross-linking with bis(sulfosuccinimidyl)-suberate (BS3), the purified His-RAD51[F86E, A89E] concentration was adjusted to 24 μM (=0.98 mg/mL). […] The mixture was incubated for 30 min at 20 °C on a thermoblock to allow for complex formation and then cross-linked with a final concentration of 1 mM BS3 (previously solubilized in PBS as a 50 mM stock). After 30 min at the same temperature, 4× Laemmli Sample Buffer (BioRad #1610747) was added to cross-linked samples and boiled at 95 °C for 5 min. […] The mixture was incubated for 1 h at 20 °C to allow for complex formation and then cross-linked with a final concentration of 0.2% (w/v) EDAC (previously solubilized in DMSO as a 10% w/v stock) for 1 h at the same temperature. 4× Laemmli Sample Buffer (BioRad #1610747) was then added to cross-linked samples and boiled at 95 °C for 5 min.
# The efficiency of cross-linking reactions was evaluated through Coomassie blue staining and Western blot (WB) analysis. Prepared cross-linked samples were resolved using a 4–15% SDS-PAGE gel (Criterion TGX Precast Midi Protein Gel), which was stained using page blue protein staining solution (Thermo Fisher, 24620) according to manufacturer protocols. […] After three washes in TBS-T, chemiluminescence was detected using the Clarity Western ECL substrate (Biorad, #1705061), and images were recorded using a ChemiDoc MP Imaging System (Biorad). […]
substance,measurement,setting,value
"Bio-Ahx-KEPTLLGFHTASGKKVKIAKESLDKVKNLFDEKEQ-COOH [bioBRC4, modified version of BRC4 harboring a biotin at the N-ter]",binding to monomeric RAD51,"[1]; SLS and BLI (two orthogonal methods), SLS: RAD51 [F86E, A89E] 24 μM, 1 h at 25 °C, 4-fold excess peptide, 20 mM Hepes pH 8.00, 100 mM Na2SO4, 5% glycerol, 5% DMSO for BioBRC4",confirmed the binding of bioBRC4 to monomeric RAD51
same,effect of biotin modification on binding to monomeric RAD51,"[1]; bioBRC4 vs BRC4, assessed from SLS and BLI (Figure S3)",did not negatively affect its binding to monomeric RAD51
same,binding to monomeric RAD51,[2],showing the binding of monomeric His-
same,"cross-linking to monomeric RAD51, BS3 versus EDAC",[3],BS3 cross-linked bioBRC4 to the monomeric RAD51 more effectively than EDAC
